SMILES strings stand for the structures. Counter-ions that a name gives are not always drawn.

Consider one compound from patent US8492352B2, “Polysaccharides with antithrombotic activity, including a covalent bond and an amino chain” (Sanofi, priority 2008, dated 2013).

This assay concerns the target coagulation factor Xa, in the presence of antithrombin (Homo sapiens, UniProt P01008). Put plainly: in vitro model of inhibition of coagulation factor Xa in the presence of antithrombin (anti-factor Xa activity). The settings on record: method per Herbert et al., Blood 1998, read-out: IC50 (dose for 50% inhibition), inhibition of coagulation factor Xa (converted). In kind it is biochemical. The source says: The pharmacological activity of these products was in particular studied in an in vitro model of inhibition of coagulation factor Xa, in the presence of antithrombin (anti-factor Xa activity dependent on the presence of antithrombin), as described by J.-M. Herbert et al., Blood, 1998, 91, 4197-4205. In this model, the antithrombotic properties of the compounds according to the invention are confirmed.

Chain of coagulation factor Xa, in the presence of antithrombin (P01008 33-464): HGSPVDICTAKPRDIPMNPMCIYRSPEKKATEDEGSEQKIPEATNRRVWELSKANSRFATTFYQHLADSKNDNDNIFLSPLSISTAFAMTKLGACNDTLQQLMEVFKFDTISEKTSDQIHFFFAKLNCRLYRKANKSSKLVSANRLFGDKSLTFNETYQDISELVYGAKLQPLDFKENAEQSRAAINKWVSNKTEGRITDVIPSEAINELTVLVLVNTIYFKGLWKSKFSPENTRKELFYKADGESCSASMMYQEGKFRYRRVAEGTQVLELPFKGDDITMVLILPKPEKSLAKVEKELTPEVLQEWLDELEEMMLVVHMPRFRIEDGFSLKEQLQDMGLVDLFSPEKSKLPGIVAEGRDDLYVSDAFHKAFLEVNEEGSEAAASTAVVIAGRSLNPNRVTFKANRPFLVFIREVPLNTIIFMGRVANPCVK

For the compound `COC1OC(COS(=O)(=O)O)C(OC2OC(C(=O)O)C(OC3OC(COS(=O)(=O)O)C(OC4OC(C(=O)O)C(OC5OC(COS(=O)(=O)O)C(OC)C(OC)C5NC(=O)CCCCCN)C(OC)C4OC)C(OS(=O)(=O)O)C3OS(=O)(=O)O)C(OC)C2OC)C(OS(=O)(=O)O)C1OS(=O)(=O)O` [compound 1, Methyl(2-[N-(6-aminohexanoyl)]-2-deoxy-3,4-di-O-methyl-6-O-sulfonato-α-D-glucopyranosyl)-(1→4)-(2,3-di-O-methyl-β-D-glucopyranosyluronic acid)-(1→4)-(2,3,6-tri-O-sulfonato-α-D-glucopyranosyl)-(1→4)-(2,3-di-O-methyl-α-L-idopyranosyluronic acid)-(1→4)-2,3,6-tri-O-sulfonato-α-D-glucopyranoside, sodium salt], the IC50 was 0.0104 µM.
